This is an account of results in patent US9556165B2 (priority 2012, dated 2017).

SMILES strings stand for the structures. ≈ marks a conversion by molar mass, not a printed value. Read-outs that look alike come from different tables or passages of the source.

Assay type in all cases: cell-based
For assay [1], the system named is K. pneumoniae 60. As to the kind of experiment: MIC determination, broth microdilution (CLSI). Particulars: Klebsiella pneumoniae, 60, strain 2. On the technique in general: Dilution methods test growth across graded concentrations, often in twofold steps.
The subject of assay [2] is Bacteria. Kind of assay: MIC determination in combination with β-lactamase inhibitors (constant 4 μg/mL).
For assay [3], the system named is C. freundii K21/3034. As to the kind of experiment: MIC determination, broth microdilution (CLSI). To be noted: Citrobacter freundii, K21/3034, strain 4.
The subject of assay [4] is E. cloacae 34654. Kind of assay: MIC determination, broth microdilution (CLSI). Particulars: Enterobacter cloacae, 34654, strain 3.
Assay [5] relates to S. aureus 133. Kind of assay: MIC determination, broth microdilution (CLSI).
Assay [6] relates to E. coli J62. As to the kind of experiment: MIC determination, broth microdilution (CLSI). Particulars: Escherichia coli, J62, strain 17; broth microdilution; read-out: MIC strain 17 (E. coli J62).
Assay [7] has as its system E. coli ATCC25922. Kind of assay: MIC determination, broth microdilution (CLSI). Particulars: for MIC: Escherichia coli, ATCC25922, strain 1.
For assay [8], the system named is E. coli J62-TEM-3. As to the kind of experiment: MIC determination, broth microdilution (CLSI). Particulars: Escherichia coli, J62TEM3, read-out: MIC strain 18 (E. coli J62-TEM-3), strain 18; broth microdilution.
Assay [9] relates to P. aeruginosa 2297 (AmpC wt). Kind of assay: MIC determination, broth microdilution (CLSI). To be noted: Pseudomonas aeruginosa, strain 7.
The subject of assay [10] is A. baumannii ATCC15308. As to the kind of experiment: MIC determination, broth microdilution (CLSI). Particulars: Acinetobacter baumannii, ATCC15308, strain 9.
For assay [11], the system named is M. morganii 126/3048. As to the kind of experiment: MIC determination, broth microdilution (CLSI). Particulars: Morganella morganii, 126/3048, strain 5.
The test system of assay [12] is P. aeruginosa PAO1. As to the kind of experiment: MIC determination, broth microdilution (CLSI). Particulars: Pseudomonas aeruginosa, PAO1, strain 6.
Assay [13] concerns B. fragilis 6688. Kind of assay: MIC determination, broth microdilution (CLSI). Particulars: Bacteroides fragilis, 6688, strain 15; broth microdilution; read-out: MIC strain 15 (B. fragilis 6688).
Assay [14] has as its system S. pneumoniae 113. As to the kind of experiment: MIC determination, broth microdilution (CLSI). Particulars: Streptococcus pneumoniae, 113, strain 13; broth microdilution; read-out: MIC strain 13 (S. pneumoniae 113).
In assay [15] the test system is H. influenzae ATCC 49247. Kind of assay: MIC determination, broth microdilution (CLSI). To be noted: Haemophilus influenzae, ATCC49247, strain 12; broth microdilution; read-out: MIC strain 12 (H. influenzae ATCC 49247).
The subject of assay [16] is P. aeruginosa 2297-con (AmpC derepressed). Kind of assay: MIC determination, broth microdilution (CLSI). To be noted: Pseudomonas aeruginosa, read-out: strain 8 MIC, strain 8.
[17] abbreviates: Staphylococcus aureus, 133, strain 14, broth microdilution, read-out: MIC strain 14 (S. aureus 133).

In the case of `CC(C)NC(=N)c1ccc(OCCO/N=C(\C(=O)N[C@@H]2C(=O)N(S(=O)(=O)O)[C@H]2C)c2csc(N)n2)cc1` [Example 54, (2S,3S)-3-({(2Z)-2-(2-Amino-1,3-thiazol-4-yl)-2-[(2-{4-[N-(propan-2-yl)carbamimidoyl]phenoxy}ethoxy)imino]acetyl}amino)-2-methyl-4-oxoazetidine-1-sulfonic acid], the MIC in assay [1] came to 0.5 µg/mL (≈ 0.903 µM); in [3], 0.25 µg/mL (≈ 0.452 µM); in [4], 0.5 µg/mL (≈ 0.903 µM); in assay [5] (setting [17]), 2 µg/mL (≈ 3.61 µM); in assay [6], 0.5 µg/mL (≈ 0.903 µM); in [7], 0.5 µg/mL (≈ 0.903 µM). For the same compound, the MIC in assay [8] came out at 16 µg/mL (≈ 28.9 µM); in assay [9] it was 8 µg/mL (≈ 14.5 µM); in assay [10], 4 µg/mL (≈ 7.23 µM); in assay [11], 1 µg/mL (≈ 1.81 µM); in [12], 4 µg/mL (≈ 7.23 µM). Moreover, in [2], the “MIC strain 19 (E. coli J62-TEM-3 + 4 μg/mL clavulanic acid)” value came out at 0.5 µg/mL. In assay [2], the “MIC strain 20 (E. coli J62-TEM-3 + 4 μg/mL sulbactam)” value was 0.25 µg/mL. The “MIC strain 21 (E. coli J62-TEM-3 + 4 μg/mL tazobactam)” value in assay [2] came to 0.5 µg/mL.

On to `C[C@H]1[C@H](NC(=O)/C(=N\OCCOc2nnc(C(=N)N)s2)c2csc(N)n2)C(=O)N1S(=O)(=O)O` [Example 65, (2S,3S)-3-{[(2Z)-2-(2-Amino-1,3-thiazol-4-yl)-2-({2-[(5-carbamimidoyl-1,3,4-thiadiazol-2-yl)oxy]ethoxy}imino)acetyl]amino}-2-methyl-4-oxoazetidine-1-sulfonic acid], for which the MIC worked out at 0.25 µg/mL (≈ 0.481 µM) in [1]; 16 µg/mL (≈ 30.8 µM) in [13]; 1 µg/mL (≈ 1.92 µM) in assay [14]; 0.25 µg/mL (≈ 0.481 µM) in assay [3]; 0.5 µg/mL (≈ 0.962 µM) in [4]; 0.25 µg/mL (≈ 0.481 µM) in assay [5] (Staphylococcus aureus, 133, strain 11, read-out: strain 11 MIC). The MIC in assay [5] (setting [17]) turned out to be 8 µg/mL (≈ 15.4 µM); in assay [6], 1 µg/mL (≈ 1.92 µM); in [7], 0.5 µg/mL (≈ 0.962 µM); in assay [8] it was 32 µg/mL (≈ 61.6 µM); in [9] it was 32 µg/mL (≈ 61.6 µM); in assay [10], 8 µg/mL (≈ 15.4 µM). Moreover, the MIC stood at 0.125 µg/mL (≈ 0.241 µM) in assay [11], 0.5 µg/mL (≈ 0.962 µM) in assay [15] and 16 µg/mL (≈ 30.8 µM) in [12]. The “MIC strain 19 (E. coli J62-TEM-3 + 4 μg/mL clavulanic acid)” value in assay [2] stood at 0.5 µg/mL. For the same compound, the “MIC strain 20 (E. coli J62-TEM-3 + 4 μg/mL sulbactam)” value in assay [2] amounted to 1 µg/mL. For the same compound, the “MIC strain 21 (E. coli J62-TEM-3 + 4 μg/mL tazobactam)” value in assay [2] came to 2 µg/mL.

Consider `C[C@H]1[C@H](NC(=O)/C(=N\OCCOc2cccc(C(=N)N)c2)c2csc(N)n2)C(=O)N1S(=O)(=O)O` [Example 53, (2S,3S)-3-{[(2Z)-2-(2-Amino-1,3-thiazol-4-yl)-2-{[2-(3-carbamimidoylphenoxy)ethoxy]imino}acetyl]amino}-2-methyl-4-oxoazetidine-1-sulfonic acid], for which, in assay [2], the “MIC strain 19 (E. coli J62-TEM-3 + 4 μg/mL clavulanic acid)” value was 1 µg/mL. For the same compound, in assay [2], the “MIC strain 20 (E. coli J62-TEM-3 + 4 μg/mL sulbactam)” value is 1 µg/mL. For the same compound, the “MIC strain 21 (E. coli J62-TEM-3 + 4 μg/mL tazobactam)” value in assay [2] is 1 µg/mL. Besides, the MIC in assay [3] was found to be 0.5 µg/mL (≈ 0.977 µM); in assay [4], 0.5 µg/mL (≈ 0.977 µM); in [5] (setting [17]) it was 32 µg/mL (≈ 62.6 µM); in assay [16], 32 µg/mL (≈ 62.6 µM); in [6], 1 µg/mL (≈ 1.95 µM); in assay [7], 0.5 µg/mL (≈ 0.977 µM). For the same compound, the MIC was determined as 16 µg/mL (≈ 31.3 µM) in assay [9], 4 µg/mL (≈ 7.82 µM) in assay [10], 2 µg/mL (≈ 3.91 µM) in assay [11] and 16 µg/mL (≈ 31.3 µM) in assay [12].

With `CC1(C)[C@H](NC(=O)/C(=N\O[C@H](COc2ccc(C(=N)NCc3ncc[nH]3)cc2)C(=O)O)c2csc(N)n2)C(=O)N1OS(=O)(=O)O` [Example 105, (2R)-2-({[(1Z)-1-(2-Amino-1,3-thiazol-4-yl)-2-{[(3S)-2,2-dimethyl-4-oxo-1-(sulfooxy)-azetidin-3-yl]amino}-2-oxoethylidene]amino}oxy)-3-{4-[N-(1H-imidazol-2-ylmeth-yl)carbamimidoyl]phenoxy}propanoic acid], the “strain 1 MIC” value in [7] (strain 1) turned out to be 16 µg/mL.
